Each structure is given as a SMILES string. Structures can show the parent of a compound that is named as a salt.

The assay deals with T1, guinea pig trachea (Cavia porcellus, UniProt Q64077).
T1 construct: functional assay in guinea pig trachea; from tissue; host or cells: guinea pig trachea (male animals), tracheal rings
T1 sequence (Q64077 1-402): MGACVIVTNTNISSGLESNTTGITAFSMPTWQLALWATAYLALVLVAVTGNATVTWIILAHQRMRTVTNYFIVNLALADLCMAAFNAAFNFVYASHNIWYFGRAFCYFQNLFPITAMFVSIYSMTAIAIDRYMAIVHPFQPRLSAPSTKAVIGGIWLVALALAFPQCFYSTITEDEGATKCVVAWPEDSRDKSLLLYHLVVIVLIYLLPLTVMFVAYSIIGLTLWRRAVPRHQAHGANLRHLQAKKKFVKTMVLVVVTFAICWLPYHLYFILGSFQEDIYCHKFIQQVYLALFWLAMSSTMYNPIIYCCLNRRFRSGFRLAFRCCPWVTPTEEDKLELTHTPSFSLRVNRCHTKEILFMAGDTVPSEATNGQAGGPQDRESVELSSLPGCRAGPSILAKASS
The assay can be described thus: Guinea Pig Assay (Test B), functional antagonism of NKA or [β-ala8]-NKA(4-10) in guinea pig trachea. The format is cell-based. The conditions noted are these: read-out: pKB (-log molar KB, apparent dissociation constant) (converted). As to the method:
The chosen agonist is refered to as AG throughout the description.
Male guinea pigs are killed by a sharp blow to the back of the head. The trachea are removed, trimmed of excess tissue and divided into two segments. Each segment is suspended as a ring between stainless steel stirrups in water-jacketed (37.5° C.) tissue baths containing a physiological salt solution of the following composition (mM): NaCl, 119; KCl 4.6; CaCl2, 1.8; MgCl2, 0.5; NaH2 PO4, 1; NaHCO3, 25; glucose, 11; thiorphan, 0.001; and indomethacin, 0.005; gassed continuously with 95% O2 -%5 CO2. […] Contractile responses are measured on a Grass polygraph via Grass FT-03 force transducers.
Tissues are challenged repetitively with a single concentration of AG (10 nM) with intervening 30 min periods with washing to allow the tension to return to baseline levels. […] Percent inhibition is determined when a Compound produces a statistically significant (p<0.05) reduction of the contraction and is calculated using the second contractile response as 100%.
Potencies of selected Compounds are evaluated by calculating apparent dissociation constants (KB) for each concentration tested using the standard equation: […]
where dose ratio=antilog[(AG -log molar EC50 without Compound)-(AG -log molar EC50 with Compound)]. The KB values may be converted to the negative logarithms and expressed as -log molar KB (i.e. pKB). […]

For orientation: Kb means the equilibrium dissociation constant of an antagonist, usually derived from a functional assay. In the case of `CN1C(=O)c2ccccc2[C@H]1[C@@H](CCN1CCC(O)(c2ccccc2)CC1)c1ccc(Cl)c(Cl)c1` (single isomer, unassigned) [Example 4, (-)-(3R/3S)-3-[(1S/1R)-1-(3,4-dichlorophenyl)-3-(4-hydroxy-4-phenylpiperidino)propyl]-2-methyl-2,3-dihydroisoindol-1-one hydrochloride], the Kb was 20 nM.

These data come from patent US5589489A, “Cyclic amide derivatives for treating asthma” (Zeneca Limited, priority 1993, dated 1996).
